Test results taken from patent US9315494B2, “Alkyl-amide-substituted pyridyl compounds useful as modulators of IL-12, IL-23 and/or IFNα responses” (Bristol-Myers Squibb Company, priority 2012, dated 2016).
Like-named read-outs stand apart in the source and are kept apart here.

Experiments:
[1] = molecular target: T1, recombinantly expressed His-tagged protein corresponding to amino acids 575-869 of human Tyk2 (Homo sapiens, UniProt P29597); experiment: Probe displacement assay (scintillation proximity, [3H] probe); format: binding; settings: 2.5 nM Tyk2 (575-869), 40 nM radiolabeled probe, 30 minutes at room temperature
T1 construct: corresponding to amino acids 575-869 of human Tyk2; made in house
T1 sequence (P29597 575-869): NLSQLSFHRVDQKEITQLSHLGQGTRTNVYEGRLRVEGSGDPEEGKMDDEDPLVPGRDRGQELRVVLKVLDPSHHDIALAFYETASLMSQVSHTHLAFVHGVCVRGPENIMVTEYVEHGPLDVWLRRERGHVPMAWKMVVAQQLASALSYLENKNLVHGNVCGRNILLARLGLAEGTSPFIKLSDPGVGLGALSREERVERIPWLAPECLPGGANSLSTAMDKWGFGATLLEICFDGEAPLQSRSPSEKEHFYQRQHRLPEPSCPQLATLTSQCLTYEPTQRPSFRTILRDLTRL
Method: The probe displacement assay is conducted as follows: In a […], test compounds along with recombinantly expressed His-tagged protein corresponding to amino acids 575-869 of human Tyk2 (sequence shown below) at 2.5 nM, 40 nM ((R)-N-(1-(3-(8-methyl-5-(methylamino)-8H-imidazo[4,5-d]thiazolo[5,4-b]pyridin-2-yl)phenyl)ethyl)-2-([^3H]methylsulfonyl)benzamide) (preparation described below) and 80 μg/mL Copper His-Tag scintillation proximity assay beads (Perkin Elmer, Catalog #RPNQ0095) in 50 mM HEPES, pH 7.5, containing 100 μg/mL bovine serum albumin and 5% DMSO were incubated for 30 minutes at room temperature. The amount of radiolabeled probe (preparation described below) bound to Tyk2 was then quantified by scintillation counting, and the inhibition by the test compound calculated by comparison to wells either with no inhibitor (0% inhibition) or without Tyk2 (100% inhibition).
Protein Sequence of recombinant Hig-tagged Tyk2 (575-869):
The preparation of radiolabeled probe, (R)-N-(1-(3-(8-methyl-5-(methylamino)-8H-imidazo[4,5-d]thiazolo[5,4-b]pyridin-2-yl)phenyl)ethyl)-2-([^3H]methylsulfonyl)benzamide, was performed as described below: […]

[2] = tested on: IL-23-stimulated STAT-dependent luciferase reporter in Kit225 T cells; experiment: Kit225 T cell assay, IL-23 stimulated STAT-dependent luciferase reporter; format: cell-based, human
How it was run: (§1)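 Kit225 T cells carrying a stably integrated STAT-luciferase reporter, in RPMI with 10% heat-inactivated FBS, were stimulated with 20 ng/mL IL-23 or 200 U/mL IFNα for 5-6 h. Readout was luminescence from the luciferase reporter.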

[3] = tested on: IFNα-stimulated STAT-dependent luciferase reporter in Kit225 T cells; experiment: Kit225 T cell assay, IFNα stimulated STAT-dependent luciferase reporter; format: cell-based, human
How it was run: as §1

[4] = Kit225 T cells, 20 ng/mL human recombinant IL-23, 5-6 hours, luciferase, read-out: IL23 (Kit225 T Cell Inhibition Data)
[5] = Kit225 T cells, 200 U/mL human recombinant IFNα, 5-6 hours, luciferase, read-out: IFNα (Kit225 T Cell Inhibition Data)
[6] = Homo sapiens, KIT225, read-out: IFNα (Kit225 T Cell Inhibition Data)

| Compound | EC50 [1] [µM] | IC50 [2, 4] [µM] | IC50 [3, 5] [µM] | IC50 [3, 6] [µM] | IC50 ([2]; Homo sapiens, KIT225, read-out: IL23 (Kit225 T Cell Inhibition Data)) [µM] |
| --- | --- | --- | --- | --- | --- |
| CNC(=O)c1cnc(Nc2ccc(F)cn2)cc1Nc1ccccc1CCO [Example 66] | 0.0148 | 1.77 | 3.17 |  |  |
| CNC(=O)c1cnc(Nc2ccc(N3CCCC3=O)cn2)cc1Nc1ccc(Cl)cc1OC [Example 107] | 0.0324 | 0.189 | 0.12 |  |  |
| CCc1cccc(Nc2cc(Nc3ccc(Cl)cc3OC)c(C(=O)NC)cn2)n1 [Example 125] | 0.436 | 9.68 | 9.97 |  |  |
| CNC(=O)c1cnc(Nc2ccc(F)cn2)cc1Nc1ccc(N2CCOCC2)cc1 [Example 211] | 0.246 | 4.27 | 3.15 |  |  |
| CNC(=O)c1cnc(Nc2ccc(C#N)c(C)n2)cc1Nc1ccc(F)cc1OC [Example 152] | 0.0406 | 0.499 | 0.37 |  |  |
| CNC(=O)c1cnc(Nc2ccc(F)cn2)cc1Nc1cc(F)cc(F)c1OC [Example 205] | 0.0251 | 0.372 | 0.18 |  |  |
| CNC(=O)c1ccc(Nc2cc(Nc3ccc(F)cn3)ncc2C(=O)NC)c(OC)c1 [Example 237] | 0.0291 | 0.47 | 0.46 |  |  |
| CNC(=O)c1cnc(Nc2ccc(S(C)(=O)=O)cn2)cc1Nc1ccccc1S(C)(=O)=O [Example 61] | 0.0164 | 3.53 | 1.03 |  |  |
| CNC(=O)c1cnc(Nc2cc(CO)ccn2)cc1Nc1ccccc1C(N)=O [Example 94] | 0.0095 | 3.56 | 3.43 |  |  |
| CNC(=O)c1cnc(Nc2ccc(N3CCOCC3)cn2)cc1Nc1ccccc1OC(F)F [Example 228] | 0.0367 | 0.144 | 0.14 |  |  |
| CNC(=O)c1cnc(Nc2cccc(-n3ccccc3=O)n2)cc1Nc1ccc(F)cc1OC [Example 165] | 0.779 | 10.7 | 6.65 |  |  |
| CNC(=O)c1cnc(Nc2cc(C#N)ccn2)cc1Nc1cccc(F)c1C(N)=O [Example 176] | 0.0188 | 1.04 | 1.02 |  |  |
| CNC(=O)c1cnc(Nc2cc(-c3ccccc3)ccn2)cc1Nc1ccccc1C(N)=O [Example 75] |  | 2.03 | 1.73 |  |  |
| CCc1cccc(Nc2cc(Nc3ccc(N4CCOCC4)cn3)ncc2C(=O)NC)c1 [Example 215] |  | 4.93 | 4.33 |  |  |
| CNC(=O)c1cnc(Nc2ccc(C)cn2)cc1Nc1ccc(F)cc1OC [Example 159] |  | 1.15 | 1.4 |  |  |
| CNC(=O)c1cnc(Nc2ccc(F)cn2)cc1Nc1ccc(C2CC2)cc1 [Example 198] |  | 4.53 | 5.3 |  |  |
| CNC(=O)c1cnc(Nc2ccc(F)cn2)cc1Nc1ccc(Cl)cc1OC [Example 99] |  | 0.479 | 0.31 |  |  |
| CNC(=O)c1cnc(Nc2ccc(OC)cn2)cc1Nc1ccc(Cl)cc1OC [Example 112] |  | 0.717 | 0.4 |  |  |
| CNC(=O)c1cnc(Nc2ccc(C#N)c(C)n2)cc1Nc1cc(F)cc(F)c1OC [Example 139] |  | 0.367 | 0.18 |  |  |
| CNC(=O)c1cnc(Nc2ncccc2Cl)cc1Nc1ccccc1C(N)=O [Example 90] |  | 7.21 | 8.26 |  |  |
| CNC(=O)c1cnc(Nc2cc(C)c(F)cn2)cc1Nc1cccc(-c2nc(C)nn2C)c1OC [Example 386] |  |  |  | 0.01 | 0.02 |
| CNC(=O)c1cnc(Nc2ccc(F)cn2)cc1Nc1ccccc1OC(F)F [Example 122] |  | 0.535 | 0.25 |  |  |
| CNC(=O)c1cnc(Nc2ccc(N3C(=O)COCC3C)cn2)cc1Nc1ccc(Cl)cc1OC (stereo not shown) [Example 102] |  | 0.368 | 0.15 |  |  |

Continued, in another order:

| EC50 [1] [µM] | IC50 [2, 4] [µM] | IC50 [3, 5] [µM] | Compound | IC50 [3, 6] [µM] | IC50 ([2]; Homo sapiens, KIT225, read-out: IL23 (Kit225 T Cell Inhibition Data)) [µM] |
| --- | --- | --- | --- | --- | --- |
| 0.0063 | 0.04 | 0.02 | CNC(=O)c1cnc(Nc2cc(C)nc(C)n2)cc1Nc1cc(F)cc(F)c1OC [Example 409] |  |  |
| 0.0026 | 0.12 | 0.08 | CNC(=O)c1cnc(Nc2cc(C)c(F)cn2)cc1Nc1cccc(C(=O)NCCF)c1OC [Example 356] |  |  |
| 0.0031 | 0.03 | 0.02 | CNC(=O)c1cnc(Nc2cc(C)nc(C)n2)cc1Nc1cccc(-c2cnn(C)c2)c1OC [Example 395] |  |  |
| 0.155 | 2.18 | 1.37 | CNC(=O)c1cnc(Nc2ccc(C(=O)NC3CC3)cn2)cc1Nc1ccc(Cl)cc1OC [Example 261] |  |  |
| 0.003 | 0.08 | 0.12 | CCc1cc(Nc2cc(Nc3ccccc3S(C)(=O)=O)c(C(=O)NC)cn2)ncn1 [Example 420] |  |  |
| 0.0061 | 0.1 | 0.02 | CCn1ncnc1-c1cccc(Nc2cc(Nc3cc(C)nc(C)n3)ncc2C(=O)NC)c1OC [Example 383] |  |  |
| 0.0011 | 0.02 | 0.01 | [2H]C([2H])([2H])NC(=O)c1cnc(Nc2ccccn2)cc1Nc1cccc(-c2ncc(F)cn2)c1OC [Example 449] |  |  |
| 0.0115 | 0.15 | 0.08 | [2H]C([2H])([2H])NC(=O)c1cnc(Nc2cc(C)c(C#N)c(C)n2)cc1Nc1ccccc1S(C)(=O)=O [Example 438] |  |  |
| 0.0153 | 0.1 | 0.01 | CNC(=O)c1cnc(Nc2cc(C)c(F)cn2)cc1Nc1cccc(C(=O)NCc2ccccn2)c1OC [Example 327] |  |  |
| 0.106 | 4.22 | 1.98 | CNC(=O)c1cnc(Nc2ccc3ccccc3n2)cc1N[C@@H]1CCCC[C@@H]1C(N)=O [Example 286] |  |  |
| 0.633 |  |  | CNC(=O)c1cnc(Nc2ccc3ccccc3n2)cc1NC1CCCC1 [Example 283] | 12.5 |  |
| 0.0046 | 0.28 | 0.12 | CNC(=O)c1cnc(Nc2cc(C)c(F)cn2)cc1Nc1cccc(-c2nc[nH]n2)c1OC(F)F [Example 387] |  |  |
| 0.0065 | 0.312 | 0.16 | CNC(=O)c1cnc(Nc2cc(C(=O)NCCOC)ccn2)cc1Nc1cc(F)cc(F)c1OC [Example 266] |  |  |
|  | 3 | 3.63 | CNC(=O)c1cnc(Nc2ccc3ccccc3n2)cc1NC1CCCC1(C)F (stereo not shown) [Example 284] |  |  |
|  | 2.65 | 3.11 | CNC(=O)c1cnc(Nc2ccc(F)cn2)cc1Nc1ccc(C(=O)N2CCOCC2)cc1S(C)(=O)=O [Example 305] |  |  |
|  | 1.29 | 0.43 | CNC(=O)c1cnc(Nc2ccc(F)cn2)cc1Nc1ccc(OC(F)(F)F)cc1C(N)=O [Example 252] |  |  |
|  | 1.03 | 0.33 | CNC(=O)c1cnc(Nc2cc(C)c(F)cn2)cc1Nc1cccc(-c2nnn[nH]2)c1OC [Example 390] |  |  |
|  | 0.04 | 0.03 | CNC(=O)c1cnc(Nc2cc(C)nc(C)n2)cc1Nc1cccc(-c2ncn(CC(F)(F)F)n2)c1OC [Example 380] |  |  |
|  | 0.17 | 0.35 | CNC(=O)c1cnc(Nc2cc(OC)ncn2)cc1Nc1ccccc1S(C)(=O)=O [Example 419] |  |  |
|  | 0.27 | 0.24 | CNC(=O)c1cnc(Nc2cc(C(=O)N(C)C)ccn2)cc1Nc1cccc(F)c1OC [Example 277] |  |  |
|  | 0.25 | 0.6 | CCNC(=O)c1cnc(Nc2ccc(F)cn2)cc1Nc1ccccc1S(C)(=O)=O [Example 297] |  |  |
|  | 1.86 | 1.16 | CNC(=O)c1cnc(Nc2ccc(F)cn2)cc1Nc1ccc(C(=O)N2CC(F)(F)C2)cc1S(C)(=O)=O [Example 308] |  |  |
|  | 0.472 | 0.3 | CNC(=O)c1cnc(Nc2ccc(F)cn2)cc1Nc1ccc(OC)cc1C(N)=O [Example 250] |  |  |
|  | 0.46 | 0.48 | CNC(=O)c1cnc(Nc2cc(C(C)(C)C)ncn2)cc1Nc1ccccc1S(C)(=O)=O [Example 421] |  |  |
|  | 0.15 | 0.13 | CNC(=O)c1cnc(Nc2cc(C)c(F)cn2)cc1Nc1cccc(C(=O)NCC2(O)CCC2)c1OC [Example 342] |  |  |
|  | 1.16 | 1.26 | CNC(=O)c1cnc(Nc2ccc(F)cn2)cc1Nc1ccc(C(=O)N2CCCCC2)cc1 [Example 244] |  |  |
|  | 0.02 | 0.01 | CNC(=O)c1cnc(Nc2cc(C)c(F)cn2)cc1Nc1cccc(-c2nnc(C)o2)c1OC [Example 359] |  |  |
|  | 0.03 | 0.05 | CNC(=O)c1cnc(Nc2ccc(N3CCCCC3)cn2)cc1Nc1ccccc1S(C)(=O)=O [Example 435] |  |  |
|  | 0.05 | 0.05 | [2H]C([2H])([2H])NC(=O)c1cnc(Nc2cc(C)c(F)cn2)cc1Nc1cccc(-c2cnn(C)c2)c1OC [Example 399] |  |  |
|  | 0.45 | 0.24 | CNC(=O)c1cnc(Nc2cc(C)c(F)cn2)cc1Nc1ccc(C(=O)N(C)C)cc1S(C)(=O)=O [Example 412] |  |  |
